According to patent US20250328351A1, “CARBONIC ANHYDRASE INHIBITORS AND ANTIBIOTICS AGAINST MULTIDRUG RESISTANT BACTERIA” (Purdue Research Foundation, priority 2018, published 2025):
Values after ≈ are worked out from the molar mass of the structure shown. Where two headings read alike, the source gives them in different places.

Assays:
[1] = system: Enterococcus faecalis S613 HM-334; experiment: MIC, broth microdilution (CLSI); format: cell-based
Procedure: (§1) The minimum inhibitory concentrations (MICs) of the compounds and control drugs were determined using the broth microdilution method, according to guidelines outlined by the Clinical and Laboratory Standards Institute (CLSI). Enterococci strains were grown aerobically overnight on tryptone soya agar plates at 37° C., afterwards a bacterial solution equivalent to 0.5 McFarland standard was prepared and diluted in tryptone soy broth (TSB) to achieve a bacterial concentration of about 5×10^5 CFU/mL and seeded in 96-well well plates. Compounds and control drugs were added in the first row of the 96-well plates and serially diluted along the plates. Plates were then incubated aerobically at 37° C. for 18-20 hours. MICs reported in Table 1 are the minimum concentration of the compounds/control drugs that could inhibit completely the visual growth of the bacteria.
(§2) The minimum inhibitory concentrations (MICs) of CAIs were tested against clinical isolates of vancomycin sensitive and vancomycin resistant Enterococci strains as per the guidelines provided by the Clinical and Laboratory Standards Institute (CLSI). The selected strains of Enterococci were streaked on Tryptic Soy Agar (TSA) plates and let grow for 24 hours at 37° C. Afterwards, a bacterial solution equivalent to 0.5 McFarland standard was prepared and diluted in tryptone soy broth (TSB) or brain heart infusion broth (BHIB) to achieve a bacterial concentration of about 5×10^5 CFU/mL and seeded in 96-well well plates. Compounds and control drugs were added in the first row of the 96-well plates and serially diluted along the plates. Plates were then incubated aerobically at 37° C. for 18-20 hours. MICs reported in Table 5 are the minimum concentration of the compounds/control drugs that could inhibit completely the visual growth of the bacteria.
The minimum inhibitory concentrations (MICs) of CAIs were tested against vancomycin resistant Enterococcus faecalis—S613 HM 334 strain as per the guidelines provided by the Clinical and Laboratory Standards Institute (CLSI). The selected strain was streaked on Tryptic Soy Agar (TSA) plate and let grow for 24 hours at 37° C. […] Compounds and control drugs were added in the first row of the 96-well plates and serially diluted along the plates. Plates were then incubated aerobically at 37° C. for 18-20 hours. MICs reported in table (6) are the minimum concentration of the compounds/control drugs that could inhibit completely the visual growth of the bacteria.

[2] = system: Bacteroides dorei CL02T12C06 HM-719; experiment: MIC against human normal gut microbiota; format: cell-based; conditions: Phocaeicola dorei; Table 3; BHIS broth, anaerobic, 48 hours; read-out: MIC
Procedure: (§3) Three different bacterial strains were used in this experiment; Bifidobacterium (anaerobic Gram positive bacteria), Bacteroides (anaerobic Gram negative bacteria) and Lactobacillus (microaerophilic Gram positive bacteria). Bifidobacterium and Bacteroides were first grown for 48 hours at 37° C., anaerobically using brain heart infusion supplemented (BHIS) agar (Brain heart infusion agar supplemented with hemin, vitamin K and L-cysteine). Lactobacillus was cultivated on MRS agar and incubated in presence of 5% CO2 for 48 hours at 37° C. Each bacterium was suspended in phosphate buffered saline (PBS) to produce a suspension with optical density that matches 0.5 McFarland standard and diluted in brain heart infusion supplemented broth (for Bifidobacterium and Bacteroides) or in MRS broth (for Lactobacillus) to achieve bacterial concentration of approximately 5×10^5 CFU/ml. Bacteria were then seeded in 96-well plates containing serial dilutions of the compounds and incubated as mentioned previously for 48 hours.

[3] = system: Bacteroides fragilis CL07T00C01 HM-709; experiment: MIC against human normal gut microbiota; format: cell-based; conditions: Table 3, BHIS broth, anaerobic, 48 hours, read-out: MIC
Procedure: as §3

[4] = system: Bifidobacterium breve JCP7499 HM 1120; experiment: MIC against human normal gut microbiota; format: cell-based; conditions: JCP7499HM1120, Table 3, BHIS broth, anaerobic, 48 hours, read-out: MIC
Procedure: as §3

VERO cells = experiment: In vitro cytotoxicity, MTS assay; format: cell-based, monkey; conditions: concentration up to 128 μg/mL; two hours incubation
Procedure: Toxicity assessment: Compounds AS005H, AS005J, AS004B, AS005K, AS005A and 005D were assayed (at concentrations of 64 and 128 μg/mL) against a fibroblast-like monkey kidney cell line (VERO cell) to determine the potential toxic effect in vitro. Briefly, cells were cultured in Minimum Essential Medium (MEM) supplemented with 10% fetal bovine serum (FBS), 1 mM sodium pyruvate, and penicillin-streptomycin at 37° C. with CO2 (5%). Control cells received DMSO alone at a concentration equal to that in drug-treated cell samples. The cells were incubated with the compounds (in triplicate) in a 96-well plate at 37° C. with CO2 (5%) for two hours. The assay reagent MTS 3-(4,5-dimethylthiazol-2-yl)-5-(3-carboxymethoxyphenyl)-2-(4-sulfophenyl)-2H-tetrazolium) (Promega, Madison, WI, USA) was subsequently added and the plate was incubated for four hours. Absorbance readings (at OD490) were taken using a kinetic microplate reader (Molecular Devices, Sunnyvale, CA, USA). The quantity of viable cells after treatment with each compound was expressed as a percentage of the viability of DMSO-treated control cells (average of triplicate wells±standard deviation). The toxicity data was analyzed via a two-way ANOVA, with post hoc Dunnet's multiple comparisons test (P<0.05), utilizing GraphPad Prism 6.0 (GraphPad Software, La Jolla, CA).
Percent viable mammalian cells (measured as average absorbance ratio (test agent relative to DMSO) for cytotoxicity analysis of compounds AS005H, AS005J, AS004B, AS005K, AS005A and 005D (tested in triplicates) at 64 and 128 μg/mL against VERO cells using the MTS 3-(4,5-dimethylthiazol-2-yl)-5-(3-carboxymethoxyphenyl)-2-(4-sulfophenyl)-2H-tetrazolium) assay. Dimethyl sulfoxide (DMSO) was used as a negative control to determine a baseline measurement for the cytotoxic impact of each compound. The absorbance values represent an average of a minimum of three samples analyzed for each compound. Error bars represent standard deviation values for the absorbance values.

[5] = system: Enterococcus faecium Patient #2-1 - NR-31909; experiment: MIC, broth microdilution (CLSI); format: cell-based; conditions: Table 5
Procedure: as §1, §2

[6] = system: Enterococcus faecium E417 - HM-965; experiment: MIC, broth microdilution (CLSI); format: cell-based
Procedure: as §1, §2

[7] = system: Enterococcus fecalis Strain SF 24397 NR31970; experiment: MIC, broth microdilution (CLSI); format: cell-based; conditions: Table 5
Procedure: as §1, §2

[8] = Enterococcus faecalis, S613HM334, Table 5, BHIB, read-out: MIC
[9] = Enterococcus faecalis, S613HM334, Table 5, TSB, read-out: MIC
[10] = Enterococcus faecalis, S613HM334, Table 6, TSB in presence of 4% human serum albumin, read-out: MIC
[11] = Enterococcus faecalis, S613HM334, Table 1, TSB, read-out: MIC
[12] = Enterococcus faecalis, S613HM334, Table 7, TSB, read-out: MIC

CCN[C@H]1CN(CCCOC)S(=O)(=O)c2sc(S(N)(=O)=O)cc21 [Brinzolamide]
MIC [1, 8]: > 128 mg/L
MIC [1, 9]: 2 mg/L (≈ 5.21 µM)
MIC [1, 10]: > 256 mg/L

CCC(=O)Nc1nnc(S(N)(=O)=O)s1 [CAI0009, N-(5-Sulfamoyl-1,3,4-thiadiazol-2-yl)propionamide]
MIC [1, 11]: 2 mg/L (≈ 8.46 µM)
MIC [1, 12]: 2 mg/L (≈ 8.46 µM)
MIC [2]: > 64 mg/L
MIC [3]: > 64 mg/L
MIC [4]: > 64 mg/L

NS(=O)(=O)c1nnc(NC(=O)c2ccccc2)s1 [CAI0012, N-(5-Sulfamoyl-1,3,4-thiadiazol-2-yl)benzamide]
MIC [1, 11]: 4 mg/L (≈ 14.1 µM)
MIC [1, 12]: 4 mg/L (≈ 14.1 µM)
MIC [2]: > 64 mg/L
MIC [3]: > 64 mg/L
MIC [4]: > 64 mg/L

CCCC(=O)Nc1nnc(S(N)(=O)=O)s1 [CAI0013, N-(5-Sulfamoyl-1,3,4-thiadiazol-2-yl)butyramide]
MIC [2]: > 64 mg/L
MIC [3]: > 64 mg/L
MIC [4]: > 64 mg/L
toxicity to VERO cells (percent viable cells, MTS) (VERO cells): non-toxic

NS(=O)(=O)c1nnc(NC(=O)C2CCC2)s1 [CAI0018, N-(5-Sulfamoyl-1,3,4-thiadiazol-2-yl)cyclobutanecarboxamide]
MIC [1, 12]: 1 mg/L (≈ 3.81 µM)

NS(=O)(=O)c1nnc(NC(=O)C2CC2)s1 [CAI0020, N-(5-Sulfamoyl-1,3,4-thiadiazol-2-yl)cyclopropanecarboxamide]
MIC [1, 12]: 0.007 mg/L (≈ 0.0282 µM)

NS(=O)(=O)c1nnc(NC(=O)CC2CCCC2)s1 [CAI0021, 2-Cyclopentyl-N-(5-sulfamoyl-1,3,4-thiadiazol-2-yl)acetamide]
MIC [1, 12]: 0.03 mg/L (≈ 0.103 µM)

NS(=O)(=O)c1nnc(NC(=O)C2CCCCC2)s1 [CAI0022, N-(5-Sulfamoyl-1,3,4-thiadiazol-2-yl)cyclohexanecarboxamide]
MIC [1, 12]: 0.25 mg/L (≈ 0.861 µM)

NS(=O)(=O)c1nnc(NC(=O)C2CCCC2)s1 [CAI0023, N-(5-Sulfamoyl-1,3,4-thiadiazol-2-yl)cyclopentanecarboxamide]
MIC [1, 12]: 0.5 mg/L (≈ 1.81 µM)

CC(=O)Nc1nnc(S(C)(=O)=O)s1 [CAI0025, N-(5-(Methylsulfonyl)-1,3,4-thiadiazol-2-yl)acetamide]
MIC [1, 12]: > 128 mg/L

CC(C)CC(=O)Nc1nnc(S(N)(=O)=O)s1 [CAI0026, 3-Methyl-N-(5-sulfamoyl-1,3,4-thiadiazol-2-yl)butanamide]
MIC [1, 12]: 0.25 mg/L (≈ 0.946 µM)

CCCCCCC(=O)Nc1nnc(S(N)(=O)=O)s1 [CAI0027, N-(5-Sulfamoyl-1,3,4-thiadiazol-2-yl)heptanamide]
MIC [1, 12]: 0.007 mg/L (≈ 0.0239 µM)

CC(C)(C)CC(=O)Nc1nnc(S(N)(=O)=O)s1 [CAI0028, 3,3-Dimethyl-N-(5-sulfamoyl-1,3,4-thiadiazol-2-yl)butanamide]
MIC [1, 12]: 0.03 mg/L (≈ 0.108 µM)

NS(=O)(=O)c1nnc(NC(=O)CC2CCCCC2)s1 [CAI0029, 2-Cyclohexyl-N-(5-sulfamoyl-1,3,4-thiadiazol-2-yl)acetamide]
MIC [1, 12]: 0.015 mg/L (≈ 0.0493 µM)

CCCCCCCCCC(=O)N[C@@H](Cc1c[nH]c2ccccc12)C(=O)N[C@H](CC(N)=O)C(=O)N[C@@H](CC(=O)O)C(=O)N[C@@H]1C(=O)NCC(=O)N[C@@H](CCCN)C(=O)N[C@@H](CC(=O)O)C(=O)N[C@H](C)C(=O)N[C@@H](CC(=O)O)C(=O)NCC(=O)N[C@H](CO)C(=O)N[C@@H]([C@H](C)CC(=O)O)C(=O)N[C@@H](CC(=O)c2ccccc2N)C(=O)O[C@@H]1C [Daptomycin]
MIC [1, 8]: 2 mg/L (≈ 1.23 µM)
MIC [1, 9]: 1 mg/L (≈ 0.617 µM)
MIC [1, 10]: 16 mg/L
MIC ([5]; Enterococcus faecium, BHIB, read-out: MIC): 16 mg/L (≈ 9.87 µM)
MIC ([5]; Enterococcus faecium, TSB, read-out: MIC): 8 mg/L (≈ 4.94 µM)
MIC ([6]; Enterococcus faecium, E417HM965, Table 5, BHIB, read-out: MIC): 16 mg/L (≈ 9.87 µM)
MIC ([6]; Enterococcus faecium, E417HM965, Table 5, TSB, read-out: MIC): 4 mg/L (≈ 2.47 µM)
MIC ([7]; Enterococcus, BHIB, read-out: MIC): 2 mg/L (≈ 1.23 µM)
MIC ([7]; Enterococcus, TSB, read-out: MIC): 1 mg/L (≈ 0.617 µM)

NS(=O)(=O)c1cc(Cl)c(Cl)c(S(N)(=O)=O)c1 [Dichlophenamide, reference compound]
MIC ([1]; Table 5, TSB): 16 mg/L (≈ 52.4 µM)
MIC ([5]; TSB): 2 mg/L (≈ 6.55 µM)
MIC ([6]; Table 5, BHIB): 16 mg/L (≈ 52.4 µM)
MIC ([6]; Table 5, TSB): 1 mg/L (≈ 3.28 µM)
MIC ([7]; TSB): 16 mg/L (≈ 52.4 µM)

CCOc1ccc2nc(S(N)(=O)=O)sc2c1 [Ethoxzolamide]
MIC [1, 8]: > 128 mg/L
MIC [1, 9]: 1 mg/L (≈ 3.87 µM)
MIC [1, 10]: > 256 mg/L

CC(=O)NC[C@H]1CN(c2ccc(N3CCOCC3)c(F)c2)C(=O)O1 [Linezolid]
MIC [1, 11]: 1 mg/L (≈ 2.96 µM)
MIC [1, 8]: 1 mg/L (≈ 2.96 µM)
MIC [1, 9]: 1 mg/L (≈ 2.96 µM)
MIC [1, 12]: 1 mg/L (≈ 2.96 µM)
MIC [2]: 1 mg/L (≈ 2.96 µM)
MIC [3]: 2 mg/L (≈ 5.93 µM)
MIC [4]: ≤ 0.5 mg/L

CC(=O)/N=c1/sc(S(N)(=O)=O)nn1C [Methazolamide]
MIC [1, 8]: > 128 mg/L
MIC [1, 9]: 1 mg/L (≈ 4.23 µM)
MIC [1, 10]: > 256 mg/L
